Source: the kinase profiling compilation of Christmann-Franck et al. (2016)
Values belong to the compound of their own block, whether it stands above or below them.

Columns and labels:
Assay in all cases: radiometric filter-binding kinase assay
MAPK11 (human) = MAPK11 (human) (UniProt Q15759)
INSR (human) = INSR (human) (UniProt P06213)
PRKAA1 or PRKAA2 (rat) = conditions: accession and sequence are those of the human protein
MAPK1 (human) = MAPK1 (human) (UniProt P28482)
PRKCZ (human) = PRKCZ (human) (UniProt Q05513)
GSK3B (human) = GSK3B (human) (UniProt P49841)
PAK7 (human) = PAK7 (human) (UniProt Q9P286)
BRSK2 (human) = BRSK2 (human) (UniProt Q8IWQ3)
MAPK13 (human) = MAPK13 (human) (UniProt O15264)
CSK (human) = CSK (human) (UniProt P41240)
PAK6 (human) = PAK6 (human) (UniProt Q9NQU5)
SRC (human) = SRC (human) (UniProt P12931)
EPHB3 (human) = EPHB3 (human) (UniProt P54753)
RPS6KA5 KD1 KD2 (human) = RPS6KA5 KD1 KD2 (human) (UniProt O75582)
IGF1R (human) = IGF1R (human) (UniProt P08069)
ROCK2 (rat) = conditions: accession and sequence are those of the human protein
HIPK2 (human) = HIPK2 (human) (UniProt Q9H2X6)
PKN2 (human) = PKN2 (human) (UniProt Q16513)
YES1 (human) = YES1 (human) (UniProt P07947)
LCK (mouse) = conditions: accession and sequence are those of the human protein
[1] = system: AKT2 (human), P31751 [S474D]
PLK1 (human) = PLK1 (human) (UniProt P53350)
CAMKK2 (human) = CAMKK2 (human) (UniProt Q96RR4)
SYK (human) = SYK (human) (UniProt P43405)

Chain of SRC (human) (P12931 whole entry, looked up): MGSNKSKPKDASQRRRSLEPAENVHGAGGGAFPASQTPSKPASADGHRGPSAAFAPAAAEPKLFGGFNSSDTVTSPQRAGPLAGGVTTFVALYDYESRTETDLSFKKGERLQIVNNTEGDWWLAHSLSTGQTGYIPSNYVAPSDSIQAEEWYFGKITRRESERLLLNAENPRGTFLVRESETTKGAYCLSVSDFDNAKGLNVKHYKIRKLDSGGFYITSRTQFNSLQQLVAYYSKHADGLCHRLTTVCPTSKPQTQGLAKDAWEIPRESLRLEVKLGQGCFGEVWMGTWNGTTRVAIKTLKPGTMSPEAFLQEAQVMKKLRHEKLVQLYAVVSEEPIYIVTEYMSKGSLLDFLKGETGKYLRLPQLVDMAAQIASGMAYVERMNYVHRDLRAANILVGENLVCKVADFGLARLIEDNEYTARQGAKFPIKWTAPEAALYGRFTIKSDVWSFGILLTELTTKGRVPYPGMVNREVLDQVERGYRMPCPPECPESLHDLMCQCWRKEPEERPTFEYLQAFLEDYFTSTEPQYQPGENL
Chain of MAPK13 (human) (O15264 whole entry, looked up): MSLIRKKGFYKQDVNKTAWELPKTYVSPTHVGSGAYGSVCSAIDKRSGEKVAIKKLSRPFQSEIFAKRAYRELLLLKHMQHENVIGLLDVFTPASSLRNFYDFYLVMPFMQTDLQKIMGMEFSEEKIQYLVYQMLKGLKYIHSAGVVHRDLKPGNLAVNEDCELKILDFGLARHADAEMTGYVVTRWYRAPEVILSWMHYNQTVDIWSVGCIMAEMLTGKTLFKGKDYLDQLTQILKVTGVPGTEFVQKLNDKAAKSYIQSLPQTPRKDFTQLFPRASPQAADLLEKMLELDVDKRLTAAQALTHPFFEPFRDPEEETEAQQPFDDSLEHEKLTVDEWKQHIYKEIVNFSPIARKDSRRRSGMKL
Chain of HIPK2 (human) (Q9H2X6 whole entry, looked up): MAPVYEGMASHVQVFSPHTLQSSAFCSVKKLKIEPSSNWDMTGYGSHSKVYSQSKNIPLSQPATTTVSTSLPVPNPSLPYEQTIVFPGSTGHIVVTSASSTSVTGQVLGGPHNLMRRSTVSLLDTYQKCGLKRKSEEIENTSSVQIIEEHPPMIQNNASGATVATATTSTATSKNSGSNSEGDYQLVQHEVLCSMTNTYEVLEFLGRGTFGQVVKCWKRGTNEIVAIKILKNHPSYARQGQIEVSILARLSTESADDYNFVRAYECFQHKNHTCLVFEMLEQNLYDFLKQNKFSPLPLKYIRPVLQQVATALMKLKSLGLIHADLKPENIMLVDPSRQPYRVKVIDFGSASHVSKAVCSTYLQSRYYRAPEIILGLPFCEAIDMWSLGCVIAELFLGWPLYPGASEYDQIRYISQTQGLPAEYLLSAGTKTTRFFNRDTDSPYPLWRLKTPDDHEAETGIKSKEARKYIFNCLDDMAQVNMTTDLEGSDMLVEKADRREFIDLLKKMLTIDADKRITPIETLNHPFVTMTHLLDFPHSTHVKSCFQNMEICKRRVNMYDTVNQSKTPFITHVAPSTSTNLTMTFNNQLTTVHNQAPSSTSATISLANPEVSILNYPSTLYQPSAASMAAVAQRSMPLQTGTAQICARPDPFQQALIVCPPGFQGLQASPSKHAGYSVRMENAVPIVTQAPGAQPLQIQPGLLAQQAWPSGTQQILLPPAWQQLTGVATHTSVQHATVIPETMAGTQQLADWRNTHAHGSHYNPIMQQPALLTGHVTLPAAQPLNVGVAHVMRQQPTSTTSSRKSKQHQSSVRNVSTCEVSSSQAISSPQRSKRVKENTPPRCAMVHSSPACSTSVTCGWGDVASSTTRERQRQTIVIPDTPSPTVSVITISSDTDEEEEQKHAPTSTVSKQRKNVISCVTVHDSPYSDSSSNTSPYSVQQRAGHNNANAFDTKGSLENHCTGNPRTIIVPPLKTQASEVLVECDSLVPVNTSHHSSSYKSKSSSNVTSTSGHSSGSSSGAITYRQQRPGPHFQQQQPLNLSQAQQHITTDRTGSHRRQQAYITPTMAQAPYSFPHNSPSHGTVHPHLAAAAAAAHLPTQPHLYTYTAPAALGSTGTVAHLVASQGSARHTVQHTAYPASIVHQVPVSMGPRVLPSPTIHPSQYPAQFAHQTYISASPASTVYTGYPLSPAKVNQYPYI
Chain of IGF1R (human) (P08069 whole entry, looked up): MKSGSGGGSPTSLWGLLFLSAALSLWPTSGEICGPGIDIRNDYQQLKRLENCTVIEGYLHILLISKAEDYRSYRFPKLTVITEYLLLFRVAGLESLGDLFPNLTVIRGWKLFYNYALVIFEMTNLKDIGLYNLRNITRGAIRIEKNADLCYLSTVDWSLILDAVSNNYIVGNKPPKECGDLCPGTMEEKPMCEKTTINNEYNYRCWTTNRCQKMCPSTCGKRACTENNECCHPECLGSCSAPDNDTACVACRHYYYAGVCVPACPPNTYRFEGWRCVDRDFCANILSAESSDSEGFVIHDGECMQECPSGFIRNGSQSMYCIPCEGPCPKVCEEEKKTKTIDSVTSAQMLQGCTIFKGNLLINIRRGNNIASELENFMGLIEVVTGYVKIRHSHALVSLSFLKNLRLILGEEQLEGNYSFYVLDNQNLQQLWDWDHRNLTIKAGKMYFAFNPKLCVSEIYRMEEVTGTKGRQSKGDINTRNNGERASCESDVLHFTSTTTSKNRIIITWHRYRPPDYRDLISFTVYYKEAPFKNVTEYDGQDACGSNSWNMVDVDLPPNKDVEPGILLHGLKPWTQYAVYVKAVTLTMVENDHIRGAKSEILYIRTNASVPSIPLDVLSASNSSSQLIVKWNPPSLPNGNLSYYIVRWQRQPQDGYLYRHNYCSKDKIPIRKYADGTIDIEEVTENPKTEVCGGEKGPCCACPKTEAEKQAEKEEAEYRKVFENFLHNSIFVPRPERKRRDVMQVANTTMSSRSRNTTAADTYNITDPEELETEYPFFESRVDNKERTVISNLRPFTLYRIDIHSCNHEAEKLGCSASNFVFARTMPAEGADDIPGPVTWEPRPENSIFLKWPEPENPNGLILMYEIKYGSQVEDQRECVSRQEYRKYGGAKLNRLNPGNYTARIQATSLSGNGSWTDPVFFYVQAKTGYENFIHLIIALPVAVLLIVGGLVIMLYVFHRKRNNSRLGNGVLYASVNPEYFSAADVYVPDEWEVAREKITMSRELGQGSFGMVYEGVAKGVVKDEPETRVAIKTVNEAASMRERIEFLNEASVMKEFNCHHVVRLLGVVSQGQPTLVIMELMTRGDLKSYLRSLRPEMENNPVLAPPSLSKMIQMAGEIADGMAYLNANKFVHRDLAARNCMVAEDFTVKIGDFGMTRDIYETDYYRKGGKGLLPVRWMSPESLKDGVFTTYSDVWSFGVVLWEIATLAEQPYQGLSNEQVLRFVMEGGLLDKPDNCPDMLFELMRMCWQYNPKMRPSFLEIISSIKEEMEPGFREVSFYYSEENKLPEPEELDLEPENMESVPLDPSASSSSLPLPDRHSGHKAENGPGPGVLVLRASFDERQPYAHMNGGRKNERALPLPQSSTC
Chain of RPS6KA5 KD1 KD2 (human) (O75582 whole entry, looked up): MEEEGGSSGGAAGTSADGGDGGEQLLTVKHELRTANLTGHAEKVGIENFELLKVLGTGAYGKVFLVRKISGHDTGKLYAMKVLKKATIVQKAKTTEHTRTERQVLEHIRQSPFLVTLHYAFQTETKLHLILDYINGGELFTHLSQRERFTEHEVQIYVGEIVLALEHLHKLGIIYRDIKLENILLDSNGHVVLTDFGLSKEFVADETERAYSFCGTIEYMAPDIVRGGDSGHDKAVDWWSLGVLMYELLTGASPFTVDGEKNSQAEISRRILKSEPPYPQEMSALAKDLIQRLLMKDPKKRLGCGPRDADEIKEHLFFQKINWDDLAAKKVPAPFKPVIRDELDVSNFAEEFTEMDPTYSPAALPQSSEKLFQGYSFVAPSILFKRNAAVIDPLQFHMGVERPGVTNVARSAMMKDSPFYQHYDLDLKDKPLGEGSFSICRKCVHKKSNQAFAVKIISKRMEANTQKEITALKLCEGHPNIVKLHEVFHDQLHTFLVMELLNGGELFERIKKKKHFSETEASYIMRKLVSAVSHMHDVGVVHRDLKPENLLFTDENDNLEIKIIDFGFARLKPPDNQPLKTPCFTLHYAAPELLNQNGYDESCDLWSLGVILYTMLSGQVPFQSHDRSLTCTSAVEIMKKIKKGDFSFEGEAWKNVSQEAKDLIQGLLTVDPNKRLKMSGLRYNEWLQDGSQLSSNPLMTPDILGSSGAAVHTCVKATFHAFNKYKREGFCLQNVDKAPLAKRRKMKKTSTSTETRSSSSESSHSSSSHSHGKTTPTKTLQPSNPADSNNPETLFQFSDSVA
Chain of PRKCZ (human) (Q05513 whole entry, looked up): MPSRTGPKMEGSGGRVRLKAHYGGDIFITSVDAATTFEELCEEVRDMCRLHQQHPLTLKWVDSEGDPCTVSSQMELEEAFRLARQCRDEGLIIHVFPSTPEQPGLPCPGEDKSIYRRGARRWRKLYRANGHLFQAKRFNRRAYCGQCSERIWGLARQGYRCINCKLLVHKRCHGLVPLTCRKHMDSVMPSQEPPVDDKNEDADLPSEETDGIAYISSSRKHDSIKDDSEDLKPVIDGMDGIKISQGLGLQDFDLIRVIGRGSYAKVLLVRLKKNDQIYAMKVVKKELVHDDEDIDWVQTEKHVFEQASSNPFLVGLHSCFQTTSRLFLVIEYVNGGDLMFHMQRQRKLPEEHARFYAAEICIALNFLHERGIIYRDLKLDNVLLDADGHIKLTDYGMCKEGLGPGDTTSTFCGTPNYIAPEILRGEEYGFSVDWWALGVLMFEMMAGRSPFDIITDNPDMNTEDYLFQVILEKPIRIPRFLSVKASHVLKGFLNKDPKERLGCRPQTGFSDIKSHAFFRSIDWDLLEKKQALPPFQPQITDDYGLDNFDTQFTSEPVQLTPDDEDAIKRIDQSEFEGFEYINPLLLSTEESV

- residual activity (MAPK11 (human); compound 1.0 µM): 91%
- residual activity (MAPK11 (human); compound 10.0 µM): 74%
- residual activity (INSR (human); compound 1.0 µM): 94%
- residual activity (INSR (human); compound 10.0 µM): 96%
- residual activity (PRKAA1 or PRKAA2 (rat); compound 1.0 µM): 87%
- residual activity (PRKAA1 or PRKAA2 (rat); compound 10.0 µM): 54%
- residual activity (MAPK1 (human); compound 1.0 µM): 81%
- residual activity (MAPK1 (human); compound 10.0 µM): 74%
- residual activity (PRKCZ (human); compound 10.0 µM): 10%
- residual activity (GSK3B (human); compound 1.0 µM): 126%
- residual activity (GSK3B (human); compound 10.0 µM): 99%
- residual activity (PAK7 (human); compound 1.0 µM): 82%
- residual activity (PAK7 (human); compound 10.0 µM): 72%
- residual activity (BRSK2 (human); compound 1.0 µM): 89%
- residual activity (BRSK2 (human); compound 10.0 µM): 45%
- residual activity (MAPK13 (human); compound 1.0 µM): 88%
- residual activity (MAPK13 (human); compound 10.0 µM): 73%
- residual activity (CSK (human); compound 1.0 µM): 91%
- residual activity (CSK (human); compound 10.0 µM): 92%
- residual activity (PAK6 (human); compound 1.0 µM): 72%
- residual activity (PAK6 (human); compound 10.0 µM): 78%
- residual activity (SRC (human); compound 1.0 µM): 91%
- residual activity (SRC (human); compound 10.0 µM): 83%
- residual activity (EPHB3 (human); compound 1.0 µM): 89%
- residual activity (EPHB3 (human); compound 10.0 µM): 93%
- residual activity (RPS6KA5 KD1 KD2 (human); compound 1.0 µM): 71%
- residual activity (RPS6KA5 KD1 KD2 (human); compound 10.0 µM): 31%
- residual activity (IGF1R (human); compound 1.0 µM): 80%
- residual activity (ROCK2 (rat); compound 1.0 µM): 73%
- residual activity (ROCK2 (rat); compound 10.0 µM): 39%
- residual activity (HIPK2 (human); compound 1.0 µM): 84%
- residual activity (HIPK2 (human); compound 10.0 µM): 34%
- residual activity (PKN2 (human); compound 1.0 µM): 69%
- residual activity (PKN2 (human); compound 10.0 µM): 36%
- residual activity (YES1 (human); compound 1.0 µM): 94%
- residual activity (YES1 (human); compound 10.0 µM): 49%
- residual activity (LCK (mouse); compound 1.0 µM): 88%
- residual activity (LCK (mouse); compound 10.0 µM): 74%
- residual activity ([1]; compound 1.0 µM): 88%
- residual activity ([1]; compound 10.0 µM): 61%
- residual activity (PLK1 (human); compound 1.0 µM): 83%
- residual activity (PLK1 (human); compound 10.0 µM): 87%
- residual activity (CAMKK2 (human); compound 1.0 µM): 94%
- residual activity (CAMKK2 (human); compound 10.0 µM): 78%
- residual activity (SYK (human); compound 1.0 µM): 106%
- residual activity (SYK (human); compound 10.0 µM): 91%
Structure (SMILES): O=C1Nc2nc(-c3c(O)cccc3OCC3CC3)cc(C3CCCNC3)c2CO1 (stereo unspecified)

- residual activity (MAPK11 (human); compound 0.1 µM): 88%
- residual activity (MAPK11 (human); compound 1.0 µM): 89%
- residual activity (MAPK11 (human); compound 10.0 µM): 97%
- residual activity (INSR (human); compound 0.1 µM): 108%
- residual activity (INSR (human); compound 1.0 µM): 95%
- residual activity (INSR (human); compound 10.0 µM): 96%
- residual activity (PRKAA1 or PRKAA2 (rat); compound 0.1 µM): 100%
- residual activity (PRKAA1 or PRKAA2 (rat); compound 1.0 µM): 88%
- residual activity (PRKAA1 or PRKAA2 (rat); compound 10.0 µM): 46%
- residual activity (MAPK1 (human); compound 0.1 µM): 93%
- residual activity (MAPK1 (human); compound 1.0 µM): 85%
- residual activity (MAPK1 (human); compound 10.0 µM): 86%
- residual activity (PRKCZ (human); compound 0.1 µM): 78%
- residual activity (PRKCZ (human); compound 1.0 µM): 75%
- residual activity (PRKCZ (human); compound 10.0 µM): 70%
- residual activity (GSK3B (human); compound 0.1 µM): 87%
- residual activity (GSK3B (human); compound 1.0 µM): 96%
- residual activity (GSK3B (human); compound 10.0 µM): 92%
- residual activity (PAK7 (human); compound 1.0 µM): 88%
- residual activity (PAK7 (human); compound 10.0 µM): 87%
- residual activity (BRSK2 (human); compound 0.1 µM): 88%
- residual activity (BRSK2 (human); compound 1.0 µM): 84%
- residual activity (BRSK2 (human); compound 10.0 µM): 83%
- residual activity (MAPK13 (human); compound 0.1 µM): 89%
- residual activity (MAPK13 (human); compound 1.0 µM): 82%
- residual activity (MAPK13 (human); compound 10.0 µM): 91%
- residual activity (CSK (human); compound 0.1 µM): 94%
- residual activity (CSK (human); compound 1.0 µM): 93%
- residual activity (CSK (human); compound 10.0 µM): 98%
- residual activity (PAK6 (human); compound 0.1 µM): 99%
- residual activity (PAK6 (human); compound 1.0 µM): 83%
- residual activity (PAK6 (human); compound 10.0 µM): 86%
- residual activity (SRC (human); compound 0.1 µM): 103%
- residual activity (SRC (human); compound 10.0 µM): 92%
- residual activity (EPHB3 (human); compound 0.1 µM): 132%
- residual activity (EPHB3 (human); compound 1.0 µM): 139%
- residual activity (EPHB3 (human); compound 10.0 µM): 101%
- residual activity (RPS6KA5 KD1 KD2 (human); compound 0.1 µM): 80%
- residual activity (RPS6KA5 KD1 KD2 (human); compound 1.0 µM): 34%
- residual activity (RPS6KA5 KD1 KD2 (human); compound 10.0 µM): 6%
- residual activity (IGF1R (human); compound 0.1 µM): 72%
- residual activity (IGF1R (human); compound 1.0 µM): 95%
- residual activity (IGF1R (human); compound 10.0 µM): 82%
- residual activity (ROCK2 (rat); compound 0.1 µM): 98%
- residual activity (ROCK2 (rat); compound 1.0 µM): 91%
- residual activity (ROCK2 (rat); compound 10.0 µM): 58%
- residual activity (HIPK2 (human); compound 0.1 µM): 108%
- residual activity (HIPK2 (human); compound 1.0 µM): 86%
- residual activity (HIPK2 (human); compound 10.0 µM): 88%
- residual activity (PKN2 (human); compound 0.1 µM): 95%
- residual activity (PKN2 (human); compound 1.0 µM): 86%
- residual activity (PKN2 (human); compound 10.0 µM): 84%
- residual activity (YES1 (human); compound 0.1 µM): 98%
- residual activity (YES1 (human); compound 1.0 µM): 84%
- residual activity (YES1 (human); compound 10.0 µM): 76%
- residual activity (LCK (mouse); compound 0.1 µM): 91%
- residual activity (LCK (mouse); compound 1.0 µM): 92%
- residual activity (LCK (mouse); compound 10.0 µM): 88%
- residual activity ([1]; compound 0.1 µM): 74%
- residual activity ([1]; compound 1.0 µM): 73%
- residual activity ([1]; compound 10.0 µM): 60%
- residual activity (PLK1 (human); compound 0.1 µM): 98%
- residual activity (PLK1 (human); compound 1.0 µM): 87%
- residual activity (PLK1 (human); compound 10.0 µM): 88%
- residual activity (CAMKK2 (human); compound 0.1 µM): 99%
- residual activity (CAMKK2 (human); compound 1.0 µM): 98%
- residual activity (CAMKK2 (human); compound 10.0 µM): 80%
- residual activity (SYK (human); compound 0.1 µM): 121%
- residual activity (SYK (human); compound 1.0 µM): 100%
- residual activity (SYK (human); compound 10.0 µM): 91%
Structure (SMILES): CCc1cncnc1N1CCN(Cc2nc3cc(C(F)(F)F)ccc3[nH]2)CC1
